Article PMC11224111, “Optimizing the pharmacokinetics of an ^211At-labeled RGD peptide with an albumin-binding moiety via the administration of an albumin-binding inhibitor” (European Journal of Nuclear Medicine and Molecular Imaging, 2024)

Legend:
[1] = tested on: U-87 MG tumor-bearing mice; parameters: method as in PMID 37819452; settings: 370 and 925 kBq without IPBA; cited from earlier work
[2] = parameters: method as in PMID 37819452; settings: normal mice; cited from earlier work
[3] = tested on: U-87 MG tumor-bearing mice; test: Therapeutic experiments in U-87 MG tumor-bearing mice; assay type: in vivo; settings: for Relative body weight / Relative tumor volume: 1.85 MBq with IPBA; for Relative body weight: relative to initial body weight; for Relative tumor volume: relative to initial tumor volume
Method: To prepare tumor-bearing mice, 5 × 10^6 of U-87 MG cells were subcutaneously inoculated into the right shoulder of 4-week-old female BALB/c nude mice (13–15 g, Japan SLC, Inc.) as previously reported. At approximately 10-day postinoculation of U-87 MG cells, they were used for each experiment after tumor size reached 0.3–0.5 cm^3.
U-87 MG tumor-bearing mice were divided into three groups, [^211At]1 (1.85 MBq) (n = 6) injected group, only […] (1.85 MBq) and IPBA (n = 6) injected group, and vehicle and IPBA (n = 3) injected group as a control group. In IPBA injected group, it was administered at 10 molar equivalent of blood albumin at 1-h postinjection of [^211At]1 or vehicle. Tumor volume and body weight of mice were monitored 5 or 6 times weekly. Tumor size was measured with a slide caliper, and tumor volume was calculated using a formula: volume = 4/3 π (1/2 length × 1/2 width × 1/2 height). Tumor volume and body weight compared to the values on the day of treatment (relative tumor volume). The mice were euthanized humanely when body weight was less than 80% at baseline (day 0) or when the tumor weight reached more than 10% of body weight as the endpoint.

[4] = tested on: U-87 MG tumor-bearing mice; parameters: method as in PMID 37819452; settings: until 24-h postinjection, nonadministration of IPBA; cited from earlier work

For “Ga-DOTA-K([^211At]APBA)-c(RGDfK) [[^211At]1]”, the “Weight loss and death” value [1] is listed as “a little weight loss, but no mice died”, the Toxicity [2] is listed as “no serious hematotoxicity and weight loss” and the Body weight loss ([3]; 1.85 MBq followed by IPBA, temporary, recovered) is listed as “less than 10%”. The Tumor growth ([3]; 1.85 MBq followed by IPBA, vs control group) was “significantly more inhibited than it was in the control group”, the Relative body weight ([3]; day 0 after injection) was 1.00 (0.00) and the Relative tumor volume ([3]; day 0 after injection) was 1.00 (0.00). For the same substance, the Relative body weight ([3]; day 1 after injection) was 0.99 (0.02), the Relative tumor volume ([3]; day 1 after injection) was 1.14 (0.11) and the Relative body weight ([3]; day 2 after injection) was 0.99 (0.01). The Relative tumor volume ([3]; day 2 after injection) was 1.19 (0.09), the Relative body weight ([3]; day 3 after injection) was 0.97 (0.03) and the Relative tumor volume ([3]; day 3 after injection) was 1.23 (0.15). For the same substance, the Relative body weight ([3]; day 4 after injection) was 0.96 (0.02), the Relative tumor volume ([3]; day 4 after injection) was 1.21 (0.18) and the Relative body weight ([3]; day 6 after injection) was 0.93 (0.04). For the same substance, the Relative tumor volume ([3]; day 6 after injection) was 1.24 (0.17), the Relative body weight ([3]; day 7 after injection) was 0.94 (0.03) and the Relative tumor volume ([3]; day 7 after injection) was 1.25 (0.19). For the same substance, the “Time within which all mice died” value ([3]; 1.85 MBq without IPBA) was no more than 9 days, the “Excretion, feces” value [4] was 2.75 ± 0.40 %IA and the “Excretion, urine” value [4] was 10.94 ± 2.66 %IA.
